In patent US20170102375A1, “METHODS FOR DETERMINING THE EFFECTS OF COMPOUNDS ON JAK/STAT ACTIVITY” (Nodality, Inc., priority 2009, published 2017):
Like-named read-outs stand apart in the source and are kept apart here.

Tests used:
[1] = test system: G-CSF-induced p-Stat readout; assay: G-CSF-induced JAK/STAT signaling in AML patient cells, phosphoflow p-Stat1, p-Stat3, p-Stat5; format: cell-based, human
Protocol: (§1) Cells from three patients were stimulated with the cytokines IL-27 and G-CSF to determine whether these modulators could induce JAK/STAT pathway activation across cells from different AML patient donors. IL-27 has been reported to signal through JAK1, JAK2, and Tyk2, leading to the phosphorylation of Stat1, Stat3, and Stat5. G-CSF has been reported to signal through JAK2 and Tyk2 and leads to the phosphorylation of Stat3. […] One hour after incubation, the cells were stimulated with IL-27 and G-CSF. After stimulation cell signaling was measured by multiparametric phosphoflow cytometry to assess p-Stat1, p-Stat3 and p-Stat5 levels.
(§2) The samples were gated on cell populations. Incubation with fluorochrome-conjugated monoclonal antibodies that recognize lineage specific epitopes on the cell surface delineated at least 3 cell subpopulations in patient samples. […] Three cell subsets were examined: (1) CD34−/CD117med, (2) CD34+/CD117med, (3) CD34−/CD117−. “CD117” in FIG. 18 is the same as “ckit” in FIG. 19. “Med” indicates a medium amount of expression with respect to other cell subsets that express more or less CD117.

[2] = test system: IL-27-induced p-Stat readout; assay: IL-27-induced JAK/STAT signaling in AML patient cells, phosphoflow p-Stat1, p-Stat3, p-Stat5; format: cell-based, human
Protocol: as §1, §2

[3] = test system: p-STAT5 in T cells; assay: multiparameter phosphoflow, p-STAT5 in T cells gated from 90% whole blood; format: cell-based
Protocol: A dose series of treatments is performed for each compound, ranging from doses as low as no compound, up to doses in the ranges of 1×10° nM, 1×10^1 nM, 1×10^2 nM, 1×10^3 nM, and 1×10^4 nM. Cell signaling is measured by multiparametric phosphoflow cytometry to assess p-Stat3, pERK, and p-Stat5 levels. The samples are gated on cell populations. This method may be used, for example, to measure JAK/STAT signaling activity in gated T cells based on levels p-Stat5 (See FIG. 12). The relationship between dosing and signaling activity can be used to calculate the IC50 for each compound (See, e.g. FIG. 12).

[4] = test system: pAKT (S473); assay: phosphoflow, evoked pAKT (S473) in B-cells gated from PBMC sample, IC50 from sub-sampled cells; format: cell-based; details: repeated 100 times, read-out: log10(IC50) (converted)
Protocol: In some embodiments, the invention provides tools for making robust measurements of very small subpopulations of cells. […] The IC50 for […] was calculated using pAKT measurements from 3,000 cells. […] The median fluorescence index (MFI) was then computed only from these cells and used to estimate the IC50 value. This process was repeated 100 times at each sampling level to generate a list of IC50 values. If a small number of cells is sufficiently representative of the larger population, all the IC50 values are expected to be similar to each other, and therefore the 95% confidence interval will remain small. […] For samples of 40 cells and fewer, the IC50 became increasingly inconsistent. Depending on experimental conditions, such as cell type, nodes assayed, the percentage of cells that respond to the modulator, detection methods, and the strength of the signal, the minimal number of cells needed to obtain statistically relevant measurements may vary.

[5] = test system: p-ERK in B cells; assay: multiparameter phosphoflow, p-ERK stimulated by CD40L in B-cells from PBMCs; format: cell-based; details: treated PBMCs, off-target ERK/MAPK (FIG. 16)
Protocol: (§3) (See FIG. 11; Table 7). […] The samples are gated on cell populations.
(§4) As shown in FIGS. 16-17, the methods of the invention can also be used to identify off-target effects of drug treatment. Muliparameter phosphoflow is used to detect the effects of compounds selected from the list in Table 8 on signaling pathways other than JAK/STAT. In FIG. 16, when PBMCs are treated with the JAK/STAT inhibitor Pyridone 6 (“Jak Inhibitor I,” Calbiochem), pERK levels are reduced in monocytes. […] Thus, the methods of the invention can identify both inhibition and induction of off-target signaling pathways, in this example, the ERK/MAPK pathway. The methods of the invention can also be used to identify off-target effects of JAK/STAT inhibitors on other pathways.

[6] = test system: p-ERK in monocytes; assay: multiparameter phosphoflow, p-ERK stimulated by GM-CSF in monocytes from PBMCs; format: cell-based; details: treated PBMCs, off-target ERK/MAPK (FIG. 16)
Protocol: as §3, §4

[7] = test system: pNFkB65; assay: multiparameter phosphoflow, NFkB signaling in stimulated B cells; format: cell-based; details: stimulated B cells (FIG. 17)
Protocol: as §4

[8] = test system: CML patients; details: CML patients treated at the early stages of the disease; cited from earlier work

**Q.** With `C[C@@H]1CCN(C(=O)CC#N)C[C@@H]1N(C)c1ncnc2[nH]ccc12` [CP-690550] as the compound, how does the “inhibition of G-CSF-induced p-Stat readout” value ([1]; 3333 nM, 1 h pre-incubation, cells of two AML patient donors with G-CSF-induced signaling) read?
**A.** The value was “completely”.

**Q.** What about the “inhibition of basal phosphorylation levels in the p-Stat readout” value ([1]; AML patient cells, G-CSF experiment (FIG. 21)) of the same compound?
**A.** Its value is “no inhibition”.

**Q.** What about the “inhibition of IL-27-induced p-Stat readout” value ([2]; 333 nM, 1 h pre-incubation, cells of two AML patient donors with IL-27-induced signaling) of the same compound?
**A.** Its value is “completely”.

**Q.** And the “effect in cells from the third patient” value ([2]; AML patient cells in which IL-27 and G-CSF induced no signaling response)?
**A.** Its value is “no effect”.

**Q.** And the “inhibition of basal phosphorylation levels in the p-Stat readout” value ([2]; AML patient cells, IL-27 experiment (FIG. 20))?
**A.** Its value is “no inhibition”.

**Q.** And the “potency in whole blood” value ([3]; 90% whole blood gated on T cells)?
**A.** The value was “retains a high potency”.

**Q.** With `O=c1cc(N2CCOCC2)oc2c(-c3ccccc3)cccc12` [LY940002] as the compound, how does the IC50 ([4]; simulation: 10 cells sampled) read?
**A.** Its IC50 is 4.79 nM.

**Q.** And the IC50 ([4]; simulation: 20 cells sampled)?
**A.** The IC50 was 79.4 nM.

**Q.** And the IC50 ([4]; simulation: 40 cells sampled)?
**A.** Its IC50 is 61.7 nM.

**Q.** What about the IC50 ([4]; simulation: 80 cells sampled) of the same compound?
**A.** Its IC50 is 479 nM.

**Q.** And the IC50 ([4]; simulation: 160 cells sampled)?
**A.** The IC50 was 479 nM.

**Q.** And the IC50 ([4]; simulation: 320 cells sampled)?
**A.** The IC50 was 490 nM.

**Q.** What about the IC50 ([4]; simulation: 640 cells sampled) of the same compound?
**A.** The IC50 was 490 nM.

**Q.** And the IC50 ([4]; simulation: 1280 cells sampled)?
**A.** The IC50 was 479 nM.

**Q.** What about the IC50 ([4]; simulation: 2560 cells sampled) of the same compound?
**A.** Its IC50 is 490 nM.

**Q.** And the IC50 ([4]; simulation: MFI from 5 cells sampled from 3,000 cell data set)?
**A.** The IC50 was 0.302 nM.

**Q.** With `CC(C)(C)c1nc2c3cc[nH]c(=O)c3c3cc(F)ccc3c2[nH]1` [Pyridone 6] as the compound, how does the “decrease of potency in whole blood versus PBMCs” value ([3]; 90% whole blood gated on T cells vs stimulated PBMCs) read?
**A.** The value was 70 fold.

**Q.** What about the “effect on pERK levels in B cells” value [5] of the same compound?
**A.** The value was “does not reduce”.

**Q.** What about the “effect on pERK levels in monocytes” value [6] of the same compound?
**A.** The value was “reduced”.

**Q.** Which “effect on NFkB signaling, levels of pNFkB65” value [7] does the source give for `CCOC(=O)c1cn(-c2c(F)c(F)c(C#N)c(F)c2F)c2c(F)c(F)c(F)cc2c1=O` [Stat3 Inhibitor VII] here?
**A.** Its value is “inhibits NFkB signaling”.

**Q.** Which “effect on pERK levels in B cells” value [5] does the source give for `CC(C)(O)/C=C/C(=O)[C@](C)(O)[C@H]1[C@H](O)C[C@@]2(C)[C@@H]3CC=C4[C@@H](C=C(O)C(=O)C4(C)C)[C@]3(C)C(=O)C[C@]12C` [cucurbitacin I] here?
**A.** Its value is “increased”.

**Q.** And the “effect on pERK levels in monocytes” value [6]?
**A.** Its value is “increased”.

**Q.** Which “complete remission, patients” value [8] does the source give for `Cc1ccc(NC(=O)c2ccc(CN3CCN(C)CC3)cc2)cc1Nc1nccc(-c2cccnc2)n1` [imatinib] here?
**A.** The value was 97%.
